Patent US20030203908A1, “Dihydrofolate reductase inhibitors” (priority 2000, published 2003)
Values after ≈ are worked out from the molar mass of the structure shown. Read-outs that look alike come from different tables or passages of the source.

What was measured:
[1] = molecular target: T1, wild-type (wt) DHFR from Plasmodium falciparum (Plasmodium falciparum, UniProt P13922, N108S/R59C); assay: Inhibition of wild-type pfDHFR (spectrophotometric, Ki); type: biochemical;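 further: Affinity-purified enzyme, initial reaction rates measured across a range of inhibitor concentrations, Ki obtained by nonlinear least-squares fitting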
T1 construct: The Dihydrofolate Reductase Domain of Plasmodium falciparum Thymidylate Synthase-Dihydrofolate Reductase; made in house
Experimental: (§2) For determination of the Ki values of a number of synthesized analogues, the assay reactions were initiated with affinity-purified enzyme (^˜0.005-0.01 U ml^−1), and the initial velocities in the presence of varying concentrations of inhibitors were analysed by non-linear least square fit using Kaleidagraph™ software.

[2] = molecular target: T2, A16V.S108T mutant (mut) of DHFR from Plasmodium falciparum (Plasmodium falciparum, UniProt A7UD81, A16V/S108T); assay: biochemical
T2 construct: The Dihydrofolate Reductase Domain of Plasmodium falciparum Thymidylate Synthase-Dihydrofolate Reductase; made in house
Experimental: as §2

[3] = tested on: A16V.S108T mutant (mut) of DHFR from Plasmodium falciparum; assay: biochemical; details: resistance factor
Experimental: as §2

[4] = tested on: wild-type (TM4/8.2) strain of P. falciparum; assay: microbe, parasite or virus in culture; type: cell-based, Plasmodium falciparum
Experimental: (§1) Mol. Biochem. Parasitol. […] Science, 1976, 193, 673-675]. In vitro antimalarial activity was determined by using [^3H]-hypoxanthine incorporation method [Desjardins, R. E.; Canfield, C. J.; Haynes, J. D.; Chulay, J. D. Quantitative assessment of antimalarial activity in vitro by a semiautomated microdilution technique. Antimicrob Agents Chemother. 1979, 16, 710-718]. The drugs were initially dissolved in DMSO and diluted with the culture media. Aliquots (25 μl) of drug solution of different concentrations was placed in 96-well plate together with 200 μl of 1.5% cell suspension of parasitized erythrocytes containing 1-2% parasitemia. Final concentration of DMSO was 0.1% where there was no effect on the parasite growth. The mixtures were incubated in a 3% CO2 incubator at 37° C. After 24 h of incubation, 25 μl (0.25 μCi) of [^3H]-hypoxanthine were added to each well. The mixtures were further incubated under the same condition for 18-24 h. DNA of parasites was harvested onto glass filter paper (Unifilter, Packard, USA). The filters were dried and liquid scintillation fluid was added for radioactivity measurement in a 6-probe liquid scintillation-counter (Packard, USA).

[5] = tested on: resistant T9/94 strain of P. falciparum (A16V.S108T pfDHFR); assay: In vitro antimalarial activity, [3H]-hypoxanthine incorporation, T9/94; type: cell-based, Plasmodium falciparum; details: resistant strain T9/94
Experimental: as §1

[6] = tested on: P. falciparum 3D7 (wild-type strain); assay: In vitro inhibition of P. falciparum 3D7; type: cell-based, Plasmodium falciparum; details: 3D7 strain; for IC50: Plasmodium falciparum, read-out: Pf-3D7 ED50
[7] = tested on: P. falciparum FCR3 (resistant strain containing the A16V.S108T DHFR mutant); assay: In vitro inhibition of P. falciparum FCR3; type: cell-based, Plasmodium falciparum; details: for IC50: Plasmodium falciparum, read-out: Pf-FCR3 ED50
[8] = tested on: Plasmodium berghei; assay: In vivo activity against Plasmodium berghei in mice; details: P. berghei
Experimental: These analogues were tested in vivo in a mice against Plasmodium berghei.

[9] = molecular target: T3, DHFR-TS from Trypanosoma cruzi (Trypanosoma cruzi, UniProt Q27793); assay: Inhibition of T. cruzi DHFR-TS (I50-derived Ki);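 on all read-outs here: enzymes were recombinant T. cruzi DHFR-TS and human DHFR, both expressed in E. coli and purified on a methotrexate affinity column, with dihydrofolate and NADPH as substrates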; type: biochemical; details: for Selectivity: human Ki / T. cruzi Ki
T3 construct: pET 11c with the insertion of the complete ORF of the gene tc-dhfrts; made in house; host or cells: E. coli BL21 (DE3)
Experimental: DHFR activity was measured spectrophotometrically by monitoring the decrease in absorbance at 340 mm.
(§3) Inhibition of dihydrofolate reductases by 1,2-dihydro-1,3,5 triazines was analysed with T. cruzi and human DHFR.
(§4) DHFR assays contained 30 mM dihydrofolate, 0.1 mM NADPH, 50 mM TES buffer pH 7, 75 mM 2-mercaptoethanol and specified amounts of inhibitors. The reaction was initiated by addition of 2.8 or 2.3 units of T. cruzi and human, respectively, and monitored at 340 nm.
Selective inhibition of dihydrofolate reductase by 1,2-dihydro-1,3,5-triazines was analysed with T. cruzi and human DHFR. DHFR assays contained 30 μM dihydrofolate, 0.1 mM NADPH, 50 mM TES buffer pH 7, 75 mM β-mercaptoethanol and specified amounts of inhibitors. The reaction was initiated by addition of 2.8 or 2.3 units of T. cruzi and human enzyme, respectively, and monitored at 340 nm.
KiI 50=[I]0.5/((1+[S])/Km)

[10] = molecular target: T4, human DHFR (Homo sapiens, UniProt P00374); assay: Inhibition of human DHFR (I50-derived Ki); type: biochemical; details: for inhibitory activity against human DHFR: compared with methotrexate;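 on all read-outs here: recombinant human DHFR expressed in E. coli and purified by methotrexate affinity chromatography, enzyme activity followed spectrophotometrically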
T4 construct: made in house; host or cells: E. coli M15
T4 sequence (P00374 1-187): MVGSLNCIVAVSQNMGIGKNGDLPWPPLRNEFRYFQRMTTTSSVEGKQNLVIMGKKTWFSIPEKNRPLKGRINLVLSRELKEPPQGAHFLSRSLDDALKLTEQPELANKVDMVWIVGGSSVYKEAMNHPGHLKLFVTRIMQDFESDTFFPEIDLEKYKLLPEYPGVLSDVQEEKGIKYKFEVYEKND
Experimental: (§5) Folic acid and NADPH, were purchased from Sigma. Dihydrofolate was prepared from folic acid dithionate reduction. Methotrexate (MTX) was from Lederle Laboratories. MTX sepharose CL-6B was prepared according to the protocol described by Dann. et al. IPTG came from Boehringer Manheim. The expression system used for recombinant human DHFR production, which includes the plasmid PB-E1/RB SII, SphI-HDHFR expressed in E. coli M15, was supplied by Santi, D. V (Department of Biochemistry and Biophysics and Department of Pharmaceutical Chemistry, University of California). Recombinant T. Cruzi DHFR-TS was produced using the system pET 11c with the insertion of the complete ORF of the gene tc-dhfrts. The resulting plasmid was called pET DT.
(§6) Human and T.cruzi DHFR were produced using inducible expression systems. For human DHFR, fresh overnight cultures of E. coli M15, transformed with the plasmid, pB-E1/RB SII, SphI-HDHFR, were grown in LB and 0.1 mg/ml ampicillin medium at 28° C. For T.cruzi DHFR-TS, cultures of E. coli, BL21 (DE3) transformed with the plasmid pETDT system were grown at 37° C. The same purification protocol was used for both systems. When OD600 was at 0.8, cells pellets were collected by centrifugation, suspended in 50 ml of LB medium, containing 0.1 mg/ml of ampicillin. 10 ml of this preinocule was added to 2 litres of LB medium. Cultures were shaken at 28° C. or 37° C. (for human and T. cruzi DHFR respectively) and induction with IPTG ImM was performed when OD600 reached 0.8. After IPTG induction, cells were grown overnight in a shaker at 28° C. or 5 hours at 28° C. or 37° C. (for human and T. cruzi DHFR respectively) and then harvested by centrifugation.
(§7) Cell pellets were suspended in sonication buffer (2× TES DHFR:TES 100 mM, 2-mercaptoethanol 150 mM, EDTA 2 mM pH=7) containing protease inhibitors.
(§8) Crude extract was circulated through the MTX-Sepharose column at 4° C. at a flow rate of 0.2 ml/min until the protein was bound to the resin. The column was washed with an excess of buffer B (KH2PO410 mM pH 7, KC1 1M). Protein was eluted at 0.2 min/ml with an elution buffer (100 mM TES, 10 mM DTT, 2 mM EDTA, DHF 8.5 mM), the elution profile was collected in 1 ml fractions using a Pharmacia LKB Frac 200 collector. Finally, the protein was desalted using molecular size exclusion chromatography in a Pharmacia G-25 column. Fractions containing DHFR activity were pooled and concentrated by ultrafiltration using centripreps Amicon.
(§9) The purity of the protein preparation was assessed by detection of a single band of the correct molecular weight stained with coomasie blue following a 12% SDS-PAGE. Protein concentration was determined by the method of Bradford using a BSA as a standard. DHFR activity was measured spectrophotometrically by monitoring the decrease in absorbance at 340 mm. […] One unit of enzyme, is defined as the amount of enzyme which produces 1 nmol of product per min using ε of 12300M^−1 at 340 nm.
as §3, §4
(§10) Selective inhibition of dihydrofolate reductase by 1,2-dihydro-1,3,5-triazines was analysed with T. cruzi and human DHFR. DHFR assays contained 30 μM dihydrofolate, 0.1 mM NADPH, 50 mM TES buffer pH 7, 75 mM β-mercaptoethanol and specified amounts of inhibitors. The reaction was initiated by addition of 2.8 or 2.3 units of T. cruzi and human enzyme, respectively, and monitored at 340 nm. […] KiI 50=[I]0.5/((1+[S])/Km)

[11] = molecular target: human DHFR; assay: Inhibition of human DHFR (I50-derived Ki); type: biochemical;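 further: recombinant human DHFR expressed in E. coli and purified by methotrexate affinity chromatography, enzyme activity followed spectrophotometrically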
Experimental: as §5, §6, §7, §8, §9, §3, §4, §10

[12] = A16V.S108T mutant pfDHFR, read-out: Ki(mut)
[13] = Plasmodium falciparum, wild-type strain TM4/8.2
[14] = T. cruzi DHFR-TS, read-out: T. cruzi Ki (I50)

T1 sequence (P13922 10-228 R59C/N108S): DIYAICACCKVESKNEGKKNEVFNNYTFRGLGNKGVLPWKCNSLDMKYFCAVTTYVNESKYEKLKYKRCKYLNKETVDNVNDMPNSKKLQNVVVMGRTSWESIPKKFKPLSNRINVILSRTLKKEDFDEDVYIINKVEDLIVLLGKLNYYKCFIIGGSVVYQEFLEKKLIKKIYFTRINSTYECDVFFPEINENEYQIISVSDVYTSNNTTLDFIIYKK
T3 sequence (Q27793 whole entry): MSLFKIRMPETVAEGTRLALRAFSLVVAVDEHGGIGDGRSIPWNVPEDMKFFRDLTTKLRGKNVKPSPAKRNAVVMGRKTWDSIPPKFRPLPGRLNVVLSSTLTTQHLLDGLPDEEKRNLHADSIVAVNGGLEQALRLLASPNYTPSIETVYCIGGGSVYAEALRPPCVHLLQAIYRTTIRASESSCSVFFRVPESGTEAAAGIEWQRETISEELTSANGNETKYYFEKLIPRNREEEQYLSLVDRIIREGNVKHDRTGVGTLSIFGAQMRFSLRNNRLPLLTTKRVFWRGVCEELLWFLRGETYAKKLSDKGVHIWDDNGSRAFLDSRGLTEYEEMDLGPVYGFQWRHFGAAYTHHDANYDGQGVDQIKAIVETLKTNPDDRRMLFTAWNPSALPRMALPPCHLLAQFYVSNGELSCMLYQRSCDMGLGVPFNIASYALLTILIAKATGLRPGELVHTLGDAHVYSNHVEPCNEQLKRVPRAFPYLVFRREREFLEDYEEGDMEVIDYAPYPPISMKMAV
T2 sequence (A7UD81 1-231 A16V/S108T): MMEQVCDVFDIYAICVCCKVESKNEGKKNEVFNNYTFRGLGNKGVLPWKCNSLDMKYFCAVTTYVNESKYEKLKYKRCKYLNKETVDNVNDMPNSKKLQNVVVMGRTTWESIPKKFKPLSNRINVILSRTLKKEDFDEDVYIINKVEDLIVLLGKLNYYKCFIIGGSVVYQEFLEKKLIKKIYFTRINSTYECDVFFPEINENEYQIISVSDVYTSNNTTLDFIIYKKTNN

SMILES	Ki ([1]; read-out: Ki(wt)) [nM]	Ki [2, 12] [nM]	Ki(mut)/Ki(wt) [3]	IC50 ([4]; wild-type strain TM4/8.2) [µM]	IC50 [5] [nM]	Ki ([1]; Ki(wt) nM) [nM]	Ki [2] [nM]	IC50 [4, 13] [µM]	also measured
CCCCOc1ccc(C2N=C(N)N=C(N)N2OCCCOc2cc(Cl)c(Cl)cc2Cl)cc1 (centres unmarked) [1-[3′-(2,4,5-trichlorophenoxy)-n-propyloxy]-2-p-n-butyloxyphenyl-4,6-diamino-1,2-dihydro-1,3,5-triazine]	3.2 ± 0.4	8.2 ± 0.8	2.6	1.49	41				
NC1=NC(c2cccc(Oc3ccc(Cl)cc3)c2)N(c2cccc(Cl)c2)C(N)=N1 (centres unmarked) [(Ib) R2=3-(4-chlorophenoxy)phenyl]			2.7			1.3	3.5 ± 0.5	3.95	IC50 [6]: 0.36 µg/mL (≈ 0.844 µM); IC50 ([7]; in vitro, FCR3 strain): 78 ng/mL (≈ 0.183 µM); Mean % infected RBC ([8]; 25 mg/kg daily x4): 5.0%
CCCCOc1ccc(C2N=C(N)N=C(N)N2c2cccc(Cl)c2)cc1 (centres unmarked) [R2=4-nBuOC6H4, X=H, Y=Cl]									Pf-3D7 ED50 [6]: 0.3 µg/mL; Pf-FCR3 ED50 ([7]; in vitro, FCR3 strain): 3.8 ng/mL; Mean % infected RBC ([8]; 25 mg/kg daily x4): 16.46%
CCCOc1cccc(C2N=C(N)N=C(N)N2c2cccc(/C=C/c3ccc(Cl)cc3Cl)c2)c1 (centres unmarked) [(Id2) R2=3-propyloxyphenyl]	1.3 ± 0.3	19.2 ± 2.7	14.8	25.4	5410				
NC1=NC(c2cccc(Oc3ccccc3)c2)N(c2cccc(/C=C/c3ccc(Cl)cc3Cl)c2)C(N)=N1 (centres unmarked) [(Id2) R2=3-phenoxyphenyl]	6.5 ± 0.5	10.8 ± 1.2	1.7	4.11	4320				
COc1ccc(Oc2cccc(C3N=C(N)N=C(N)N3c3cccc(Cl)c3)c2)cc1 (centres unmarked) [(Ib) R2=3-(4-methoxyphenoxy)phenyl]			1.1			2.3 ± 0.1	2.5 ± 0.3	4.12	Mean % infected RBC ([8]; 25 mg/kg daily x4): 1.94%
NC1=NC(c2cccc(Oc3ccccc3)c2)N(c2cccc(Cl)c2)C(N)=N1 (centres unmarked) [(Ib) R2=3-phenoxyphenyl, 1-m-chlorophenyl-2-m-phenoxyphenyl-4,6-diamino-1,2-dihydro-1,3,5-triazine]			1.9			1 ± 0.2	1.9	2.3	Ki [9]: 4 nM; Selectivity [9]: 0.5; Ki ([10]; Human Ki (I50)(nM), human DHFR): 2 nM; inhibitory activity against human DHFR [10]: comparable to that of methotrexate; Ki (human)/Ki (P. falc. mut) [11]: 0.8; Ki (human)/Ki (P. falc. wt) [11]: 1.8; Ki (human)/Ki (T. cruzi) [11]: 0.5; IC50 [6]: 0.22 µg/mL (≈ 0.561 µM); ED50 against the resistant Pf FCR-3 strain in vitro [7]: 0.8 nM; IC50 ([7]; in vitro, FCR3 strain): 0.8 ng/mL (≈ 0.00204 µM); Mean % infected RBC ([8]; 25 mg/kg daily x4): 7.05%
NC1=NC(c2cccc(Oc3ccc(Cl)cc3)c2)N(c2cccc(/C=C/c3ccc(Cl)cc3Cl)c2)C(N)=N1 (centres unmarked) [(Id2) R2=3-(4-chlorophenoxy)phenyl]	219 ± 11	210 ± 18	0.9	> 10	> 10000				
CCCOc1ccc(C2N=C(N)N=C(N)N2OCCCOc2cc(Cl)c(Cl)cc2Cl)cc1 (centres unmarked) [1-[3′-(2,4,5-trichlorophenoxy)-n-propyloxy]-2-p-n-propyloxyphenyl-4,6-diamino-1,2-dihydro-1,3,5-triazine]	1.7 ± 0.3	6.1 ± 0.7	3.6	0.948	29				
NC1=NC(c2ccc(Oc3ccc(C(F)(F)F)cc3)cc2)N(c2cccc(Cl)c2)C(N)=N1 (centres unmarked) [R2=4-(4-CF3PhO)C6H4, X=H, Y=Cl]									Mean % infected RBC ([8]; 24 mg/kg daily x4): 4.4%
NC1=NC(c2cccc(Oc3ccccc3)c2)N(c2ccc(OCc3ccccc3)cc2)C(N)=N1 (centres unmarked) [1-p-Benzyloxyphenyl-2-m-phenoxyphenyl-4,6-diamino-1,2-dihydro-1,3,5-triazine]			5			0.9 ± 0.2	4.5 ± 0.6	0.255	Ki [9]: 3 nM; Selectivity [9]: 3.3; Ki ([10]; Human Ki (I50)(nM), human DHFR): 10 nM; inhibitory activity against human DHFR [10]: comparable to that of methotrexate; Ki (human)/Ki (P. falc. mut) [11]: 2.2; Ki (human)/Ki (P. falc. wt) [11]: 11; Ki (human)/Ki (T. cruzi) [11]: 3.33; melting point: 208 to 210 °C
NC1=NC(c2cccc(Oc3ccc(Cl)c(Cl)c3)c2)N(c2cccc(Cl)c2)C(N)=N1 (centres unmarked) [(Ib) R2=3-(3,4-dichlorophenoxy)phenyl]			4.1			2.2 ± 0.2	9.1 ± 0.7	3.9	Mean % infected RBC ([8]; 25 mg/kg daily x4): 13.0%
NC1=NC(c2ccc(Oc3ccccc3)cc2)N(c2cccc(Cl)c2)C(N)=N1 (centres unmarked) [(Ib) R2=4-phenoxyphenyl]			3.9			0.7	2.7 ± 0.4	0.647	IC50 ([7]; in vitro, FCR3 strain): 4 ng/mL (≈ 0.0102 µM); Mean % infected RBC ([8]; 25 mg/kg, schedule b): 11.42%
NC1=NC(c2cccc(OCc3ccccc3)c2)N(c2ccc(OCc3ccccc3)cc2)C(N)=N1 (centres unmarked) [R2=3-BnOC6H4, X=BnO, Y=H, 1-p-benzyloxyphenyl-2-m-benzyloxyphenyl-4,6-diamino-1,2-dihydro-1,3,5-triazine]	1.3 ± 0.2	5.7 ± 0.6	4.4		255				IC50 [4]: 3.45 µM; Ki [9, 14]: 40 nM; Selectivity [9]: 8.0; Ki ([10]; read-out: Human Ki (I50)): 319 nM; Ki (human)/Ki (P. falc. mut) [11]: 56; Ki (human)/Ki (P. falc. wt) [11]: 245; Ki (human)/Ki (T. cruzi) [11]: 8.0
NC1=NC(c2ccc(Cl)cc2)N(c2ccc(Cl)cc2)C(N)=N1 (centres unmarked) [(Ia) R2=p-chlorophenyl]	7.5 ± 0.9	105 ± 17	14.0	0.499	386				Ki [9, 14]: 270 nM; Selectivity [9]: 11; Ki ([10]; human DHFR, read-out: Human Ki (I50)): 2960 nM; Ki (human)/Ki (P. falc. mut) [11]: 28; Ki (human)/Ki (P. falc. wt) [11]: 395; Ki (human)/Ki (T. cruzi) [11]: 11.0
CCN(CC)CCCC(C)Nc1ccnc2cc(Cl)ccc12 (centres unmarked) [Chloroquine, reference compound]									Mean % infected RBC ([8]; 10 mg/kg daily x4): 3.58%
NC1=NC(c2cccc(OCc3ccccc3)c2)N(c2cccc(COc3cc(Cl)c(Cl)cc3Cl)c2)C(N)=N1 (centres unmarked) [(Id1) R2=3-benzyloxyphenyl]	10.3 ± 2.6	11.7 ± 3.2	1.1	14	1730				Ki [9, 14]: 30 nM; Selectivity [9]: 0.73; Ki ([10]; read-out: Human Ki (I50)): 22 nM; Ki (human)/Ki (P. falc. mut) [11]: 1.9; Ki (human)/Ki (P. falc. wt) [11]: 2.1; Ki (human)/Ki (T. cruzi) [11]: 0.7
